In one series the target is T1, CDK2/cyclin E (Homo sapiens, UniProt P24941).
T1 construct: His6; made in house; host or cells: Sf9 insect cells (baculovirus)
The series is described as follows: CDK/cyclin kinase assay, CDK2/cyclin E. The class given is biochemical. The following applies: read-out: Kinase inhibition IC50 CDK2/E.

For another series, the system named is male ZDF fa/fa rats. Kind of series: Oral glucose tolerance test (OGTT). The class given is in vivo, rat. On the procedure:
For the OGTT male ZDF fa/fa rats (Charles River, USA), 10-11 weeks old, were used. After 15 h fasting the animals were dosed intravenously with 5 mg/kg test compound in dosing vehicle, or with dosing vehicle (10% DMSO, 90% PEG-400) only at −270 and −30 min. At 0 min the rats were given 2 g/kg glucose by oral gavage. Plasma samples were taken before and every 15 min after the OGTT for determination of blood glucose.

Series [1] relates to cellular glycogen synthase activity in L6 rat myocyte cells. The series is described as follows: Glycogen synthase (GS) assay in L6 rat myocytes. The format is cell-based. On the procedure: Rat skeletal muscle myoblasts L6/G8.C5 were seeded at 2.4×10^5 cells per 10 cm dish in DMEM 10% foetal calf serum (FCS), containing penicillin/streptomycin. When 90% confluence was reached the medium was exchanged with α MEM, supplemented with 2% FCS and penicillin/streptomycin. Medium was refreshed every 48 hours and 4-7 days later the myocytes were formed.
(§1) Cells on 10 cm dishes (Human Embryonic Kidney (HEK) 293 cells, L6 rat myocytes, or 3T3 mouse adipocytes) were treated with different concentrations of GSK3-inhibitors or DMSO vehicle for 90 min. Incubation medium was removed and cells were washed with ice-cold phosphate-buffered saline (PBS) prior to lysis on ice in 50 mM HEPES, pH 7.5, 10 mM EDTA, 100 mM NaF, 5 mM DTT, protease inhibitor cocktail (Sigma). After a freeze/thaw cycle the samples are sonicated for 10 sec and centrifuged at 15,000 g for 10 min at 4° C. Lysate supernatants were snap-frozen on liquid nitrogen and stored at −80° C. Lysates were assayed for glycogen synthase activity in buffer (50 mM Tris-HCl, pH 7.8, 20 mM EDTA, 25 mM NaF, 5 mM DTT, 1% glycogen, 0.3 mM UDP-glucose and 0.06 μCi of [^14C]-UDP-glucose in the presence of 0.1 or 10 mM glucose-6-phosphate. The reaction was carried out for 30 min at 30° C. 70 μL of the reaction mixture (total volume 90 μL) were transferred to a GFC 96-well filter plate (bottom sealed with foil), containing 140 μL 96% ethanol. The GFC plate was incubated for 1 h on ice and than washed with 66% ethanol. To each well 100 μL scintillant liquid was added and the radioactivity of the samples was measured using a scintillation counter (Topcount, HP). Data are expressed as -fold increase in glycogen synthase activity ratios over those of control samples.

Another series deals with CDK2/cyclin A (Homo sapiens, UniProt P24941). Kind of series: CDK/cyclin kinase assay, CDK2/cyclin A.
The subject of series [2] is GSK-3β. The series is described as follows: GSK-3β kinase assay (phosphorylation of CREB phosphopeptide). The class given is biochemical, rabbit. The note with it: ratio of IC50 values. On the procedure: (§2) GSK-3 was obtained from New England Biolabs (UK) Ltd., Hitchin, Herts. The recombinant enzyme was isolated from a strain of E. coli that carries a clone expressing GSK-3β derived from a rabbit skeletal muscle cDNA library [Wang, Q. M.; Fiol, C. […] The samples were transferred to 96-well p81 filter plates (Whatman Polyfiltronics, Kent, UK), and the plates were washed 4 times with 200 μL/well of 75 mM aq orthophosphoric acid.

Series [3] addresses GSK-3β (Oryctolagus cuniculus, UniProt G1T8E2). Described as above. The format is biochemical, rabbit. As to the method: as §2
Series [4] relates to cellular glycogen synthase activity in HEK293 cells. The series is described as follows: Glycogen synthase (GS) assay in HEK293 cells. The class given is cell-based, human. As to the method: as §1
In the next series the target is CDK1/cyclin B1 (Homo sapiens, UniProt P06493). The series is described as follows: CDK/cyclin kinase assay, CDK1/cyclin B1.
Series [5] concerns cellular glycogen synthase activity in 3T3 mouse adipocyte cells. Kind of series: Glycogen synthase (GS) assay in 3T3 mouse adipocytes. The format is cell-based. On the procedure: Mouse pre-adipocytes 3T3-F442A were seeded at 9×10^5 cells per 10 cm dish in DMEM 10% FCS, containing penicillin/streptomycin. When 90% confluent, the same medium was supplemented with […] insulin. After 3-5 days (when most cells were differentiated) insulin was removed and 4 days later the cells were ready to use.
as §1

The next series deals with CDK4/cyclin D1 (Homo sapiens, UniProt P11802). Kind of series: CDK/cyclin kinase assay, CDK4/cyclin D1.
A further series has as its system GSK3. The note with it: known CDK inhibitors; cited from earlier work.
Setting [6] is: 5 mg/kg intravenously at -270 and -30 min, OGTT.

Like-named read-outs stand apart in the source and are kept apart here.

Sequence of GSK-3β (Oryctolagus cuniculus, UniProt G1T8E2) (G1T8E2 1-432): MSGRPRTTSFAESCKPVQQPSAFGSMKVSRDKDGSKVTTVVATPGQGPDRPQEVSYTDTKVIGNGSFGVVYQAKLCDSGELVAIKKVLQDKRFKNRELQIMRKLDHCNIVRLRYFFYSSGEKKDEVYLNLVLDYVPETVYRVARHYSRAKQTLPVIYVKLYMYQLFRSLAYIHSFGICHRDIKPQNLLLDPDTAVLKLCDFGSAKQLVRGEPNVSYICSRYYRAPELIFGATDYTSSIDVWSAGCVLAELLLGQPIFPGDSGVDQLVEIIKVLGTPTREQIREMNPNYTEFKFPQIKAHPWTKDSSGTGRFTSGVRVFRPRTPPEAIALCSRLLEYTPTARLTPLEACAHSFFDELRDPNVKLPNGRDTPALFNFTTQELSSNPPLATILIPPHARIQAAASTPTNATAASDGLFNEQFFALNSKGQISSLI
Sequence of CDK4/cyclin D1 (P11802 whole entry): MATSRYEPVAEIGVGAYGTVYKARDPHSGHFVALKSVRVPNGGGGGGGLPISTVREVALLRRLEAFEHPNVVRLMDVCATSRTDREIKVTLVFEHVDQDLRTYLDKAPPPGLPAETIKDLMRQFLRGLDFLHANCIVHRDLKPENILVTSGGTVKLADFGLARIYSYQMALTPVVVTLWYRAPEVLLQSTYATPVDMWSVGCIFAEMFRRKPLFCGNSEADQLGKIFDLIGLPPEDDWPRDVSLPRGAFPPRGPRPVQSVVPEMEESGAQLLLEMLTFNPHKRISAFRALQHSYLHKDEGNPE
Sequence of CDK4/cyclin D1 (P24385 whole entry partner): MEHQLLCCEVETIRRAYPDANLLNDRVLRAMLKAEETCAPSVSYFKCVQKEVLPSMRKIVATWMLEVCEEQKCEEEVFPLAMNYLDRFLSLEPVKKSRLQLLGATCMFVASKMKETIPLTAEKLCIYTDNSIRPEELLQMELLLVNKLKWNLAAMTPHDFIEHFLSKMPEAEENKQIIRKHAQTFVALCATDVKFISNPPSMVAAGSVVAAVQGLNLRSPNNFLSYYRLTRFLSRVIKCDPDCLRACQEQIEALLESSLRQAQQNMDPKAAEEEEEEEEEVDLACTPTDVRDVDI
Sequence of CDK1/cyclin B1 (P06493 whole entry): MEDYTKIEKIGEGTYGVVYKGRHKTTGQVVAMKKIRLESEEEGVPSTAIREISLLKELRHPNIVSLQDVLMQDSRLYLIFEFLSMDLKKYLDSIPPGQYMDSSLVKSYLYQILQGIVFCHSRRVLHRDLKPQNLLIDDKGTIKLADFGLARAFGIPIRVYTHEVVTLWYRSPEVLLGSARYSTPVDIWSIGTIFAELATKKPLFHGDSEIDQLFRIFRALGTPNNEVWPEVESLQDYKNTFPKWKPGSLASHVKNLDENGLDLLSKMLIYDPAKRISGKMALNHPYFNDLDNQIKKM
Sequence of CDK1/cyclin B1 (P14635 whole entry partner): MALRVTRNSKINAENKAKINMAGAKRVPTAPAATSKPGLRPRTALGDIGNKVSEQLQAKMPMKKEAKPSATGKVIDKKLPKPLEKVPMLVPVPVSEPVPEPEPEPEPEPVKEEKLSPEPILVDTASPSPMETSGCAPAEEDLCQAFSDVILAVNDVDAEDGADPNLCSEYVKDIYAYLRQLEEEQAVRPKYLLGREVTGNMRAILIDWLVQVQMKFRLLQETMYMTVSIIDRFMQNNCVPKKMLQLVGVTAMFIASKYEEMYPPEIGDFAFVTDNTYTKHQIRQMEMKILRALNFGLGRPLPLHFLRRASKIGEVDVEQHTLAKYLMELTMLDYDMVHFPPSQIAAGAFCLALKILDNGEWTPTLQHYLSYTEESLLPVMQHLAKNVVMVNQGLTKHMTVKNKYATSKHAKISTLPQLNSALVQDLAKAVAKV
Protocol for CDK1/cyclin B1: (§3) His6-tagged recombinant human cyclin-dependant kinases CDK1/cyclin B1, CDK2/cyclin E, CDK2/cyclin A, and CDK4 were expressed in sf9 insect cells using a baculovirus expression system. Recombinant cyclin D1 was expressed in E. coli. […] Kinase assays were performed in 96-well plates using recombinant CDK/cyclins. […] Reactions were stopped on ice, followed by filtration through p81 or GF/C filterplates (for CDK4) (Whatman Polyfiltronics, Kent, UK). After washing 3 times with 75 mM aq orthophosphoric acid, plates were dried, scintillant added and incorporated radioactivity measured in a scintillation counter (TopCount, Packard Instruments, Pangbourne, Berks, UK). Compounds for kinase assays were made up as 10 mM stocks in DMSO and diluted into 10% DMSO in assay buffer.
Protocol for CDK2/cyclin A: as §3
Protocol for CDK2/cyclin E: as §3
Protocol for CDK4/cyclin D1: as §3

Turning to `Cc1[nH]c(C#N)c(C)c1-c1ccnc(Nc2ccc(N(C)C)c([N+](=O)[O-])c2)n1` [Compound 20, 4-[2-(4-Dimethylamino-3-nitro-phenylamino)-pyrimidin-4-yl]-3,5-dimethyl-1H-pyrrole-2-carbonitrile], the IC50 on CDK2/cyclin E was 150 nM; against CDK2/cyclin A, 100 nM; at GSK-3β [3] (read-out: IC50 value as measured by a GSK3β kinase assay), < 10 nM; on GSK-3β [3] (read-out: Kinase inhibition IC50 GSK3β) it was 5 nM; against CDK1/cyclin B1 it was 50 nM; against CDK4/cyclin D1 it was 160 nM. Further, the glucose tolerance entry with male ZDF fa/fa rats (5 mg/kg intravenously at -270 and -30 min, 2 g/kg oral glucose) is “improved the glucose tolerance in ZDF rats significantly”. Besides, the “decrease of absolute AUC (blood glucose)” value with male ZDF fa/fa rats (setting [6]) stood at 22%. In addition, in the series on male ZDF fa/fa rats (setting [6]), the “decrease of reactive AUC (blood glucose)” value is reported as 39%. In addition, the “insulin levels after treatment” value with male ZDF fa/fa rats (OGTT) is given as “decreased”. The “activation of GS” value in [1] (myocytes, at 1 μM) was 2 -fold; in series [5] (adipocytes, at 1 μM), 4 -fold. Also, the “activity of glycogen synthase, fractional reaction velocity (ratio of activity at 0.1 and 10 mM glucose-6 phosphate)” value in series [1] (rat myocyte cells, dose-dependent, FIG. 1) is reported as “increased the activity of glycogen synthase”; in series [4] (HEK293 cells, dose-dependent, FIG. 1) it was “increased the activity of glycogen synthase”; in series [5] (mouse adipocyte cells, dose-dependent, FIG. 1), “increased the activity of glycogen synthase”. The “Selectivity, IC50 (CDK2/E)/IC50 (GSK3β)” value in the series with GSK-3β [2] came out at 30. In series [4] (In HEK293 cells at [compound] = 5 μM, over control samples), the “-Fold induction of GS activity” value is 2.4 -fold.

Consider `CC[C@H](CO)Nc1nc(NCc2ccccc2)c2ncn(C(C)C)c2n1` [roscovitine], for which the “inhibition of GSK3 (literature statement)” value in the series with GSK3 is given as “do not inhibit GSK3”.

Source of the values: patent US20050282843A1, “Therapeutic applications of 2-substituted 4-heteroarylpyrimidines” (priority 2002, published 2005).
